Target: T1, integrin α4β1 (Homo sapiens, UniProt P05556+P13612)
T1 construct: endogenous in cells; host or cells: Jurkat cells
Assay: Inhibition of α4β1-dependent cell adhesion (Jurkat cells to peptide CS-1)
Assay type: cell-based
Settings: adhesion of Jurkat cells to CS-1-coated plates; products preincubated with cells at 37° C. for 30 minutes; at least 6 product concentrations
Experimental: Inhibition of α4β1-Dependent Cell Adhesion
Inhibition of α4β1-dependent cell adhesion was assayed by evaluating the interaction between the peptide CS-1 (H-CLHGPEILDVPST-CONH2) and Jurkat cells (T lymphocyte cell line expressing activated integrin α4β1 but not integrin α4β7) after preincubation of said cells with the compounds of formula I to be tested. The peptide CS-1 was synthesized by conventional solid phase chemistry and purified by HPLC. Its identity was determined by elemental analysis and mass spectroscopy.
1.—Preparation of CS-1-Coated Plates
96-black well plates (Costar 3925) were used. 200 μL of 2% bovine serum albumin solution (BSA, Sigma α4503) was added per well and the plate was incubated for 2 hours at 37° C. The solution was discarded and the plate was washed twice with 200 μL of phosphate buffered saline solution (PBS, Gibco 14190-094) per well. Then, 200 μL of 10 μg/mL N-succinimidyl 3-(2-pyridyldithio)propionate solution (SPDP, Sigma P-3415) was added per well, and the plate was incubated at 37° C. for 30 minutes. The remaining solution was discarded and the plate was twice washed with 200 μL per well of PBS. Next, 200 μL of 25 μg/mL CS-1 peptide solution (equivalent to 5 μg/well) was added per well and the plate was incubated at 37° C. for 2 hours and then overnight at 4° C.
2.—Jurkat Cell Line: Culture and Fluorescent Labelling
Jurkat cells were kept in culture at a density comprised between 2×10^5 and 1.5×10^6 cells/mL in 1640 RPMI medium (Gibco 21875-034) enriched with 10% fetal calf serum (FCS, Gibco 10270-106).
50×10^6 cells were extracted, centrifuged (1200 rpm, 10 min, room temperature) and the medium was discarded. Cells were resuspended in 5 mL of RPMI, and 10 μL of a 1 mM solution of the fluorophore calceine.AM (Molecular Probes, C-3100) was added. The suspension was incubated for 30 min at 37° C. in the darkness, with occasional shaking. 40 mL of RPMI was added to stop the labelling and the suspension was centrifuged (1200 rpm, 10 min, room temperature). The medium was discarded, and the labelled cells were washed with 40 mL of RPMI in order to remove the unincorporated fluorescent probe. Finally, cells were resuspended in RPMI enriched with 10% FCS to obtain a 8×10^6 cells/mL suspension.
The plate previously prepared was twice washed with 200 μL per well of PBS and blocked with 200 μL of 1% BSA for at least 1 hour at room temperature.
The products to be tested were dissolved in dimethylsulfoxide at a concentration of 10 mM and dilutions thereof were prepared in RPMI medium enriched with 10% FCS. The products were preincubated with the Jurkat cells at 37° C. for 30 minutes, at a product concentration comprised between 1 nM and 10 μM, at a cell density of 4×10^6 cells/mL and at a maximal dimethylsulfoxide concentration of 0.1%.
100 μL of the resulting cell-product supsension was added per well (cellular density 4×10^5 cells/well). The product was omitted in the control wells and cells or CS-1 were omitted in the blanks. The plate was incubated for 60 min at room temperature in the-darkness, was twice washed with 200 μL per well of RPMI and then 100 μL of PBS was added. The plate was read with a fluorescence reader at an excitation wavelength of 485 nm and at an emission wavelength of 530 nm.
Maximal adhesion (100%) was determined as the average of the fluorescence intensities (FI) of the control wells, and the minimal adhesion as the average FI of the blanks. The adhesion inhibition percentage was determined using the following formula: [formula]
The results are expressed as the IC50 values (concentration producing 50% inhibition). IC50 values were calculated by testing at least 6 product concentrations and by adjusting the inhibition percentages to a dose-response curve of variable slope.

T1 sequence (P13612 34-1032): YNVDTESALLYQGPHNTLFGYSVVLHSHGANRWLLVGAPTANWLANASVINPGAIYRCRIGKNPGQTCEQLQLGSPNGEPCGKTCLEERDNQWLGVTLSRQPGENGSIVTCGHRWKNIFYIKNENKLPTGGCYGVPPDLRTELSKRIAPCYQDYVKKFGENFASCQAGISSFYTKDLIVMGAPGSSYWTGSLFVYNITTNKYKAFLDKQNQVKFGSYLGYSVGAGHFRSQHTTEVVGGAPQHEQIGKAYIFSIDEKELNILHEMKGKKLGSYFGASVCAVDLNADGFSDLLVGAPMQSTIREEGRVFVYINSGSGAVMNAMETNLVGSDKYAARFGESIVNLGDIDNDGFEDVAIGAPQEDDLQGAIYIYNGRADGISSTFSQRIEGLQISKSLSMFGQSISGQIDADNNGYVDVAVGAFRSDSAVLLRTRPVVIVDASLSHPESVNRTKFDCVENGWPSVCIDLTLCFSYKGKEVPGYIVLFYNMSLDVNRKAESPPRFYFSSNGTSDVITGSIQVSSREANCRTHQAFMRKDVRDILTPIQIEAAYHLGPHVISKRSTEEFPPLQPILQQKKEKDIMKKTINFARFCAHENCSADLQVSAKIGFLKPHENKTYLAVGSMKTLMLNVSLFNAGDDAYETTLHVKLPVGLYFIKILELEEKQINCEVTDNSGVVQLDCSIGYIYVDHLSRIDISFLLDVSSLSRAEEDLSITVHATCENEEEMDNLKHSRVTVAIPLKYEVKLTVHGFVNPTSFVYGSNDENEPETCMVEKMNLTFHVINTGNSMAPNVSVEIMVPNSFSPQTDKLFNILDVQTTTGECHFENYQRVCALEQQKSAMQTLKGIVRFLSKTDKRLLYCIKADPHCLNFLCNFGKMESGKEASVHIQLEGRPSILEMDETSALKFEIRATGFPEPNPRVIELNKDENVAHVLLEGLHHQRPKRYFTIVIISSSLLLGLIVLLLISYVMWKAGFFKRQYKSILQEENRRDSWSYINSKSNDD
T1 sequence (P05556 21-798): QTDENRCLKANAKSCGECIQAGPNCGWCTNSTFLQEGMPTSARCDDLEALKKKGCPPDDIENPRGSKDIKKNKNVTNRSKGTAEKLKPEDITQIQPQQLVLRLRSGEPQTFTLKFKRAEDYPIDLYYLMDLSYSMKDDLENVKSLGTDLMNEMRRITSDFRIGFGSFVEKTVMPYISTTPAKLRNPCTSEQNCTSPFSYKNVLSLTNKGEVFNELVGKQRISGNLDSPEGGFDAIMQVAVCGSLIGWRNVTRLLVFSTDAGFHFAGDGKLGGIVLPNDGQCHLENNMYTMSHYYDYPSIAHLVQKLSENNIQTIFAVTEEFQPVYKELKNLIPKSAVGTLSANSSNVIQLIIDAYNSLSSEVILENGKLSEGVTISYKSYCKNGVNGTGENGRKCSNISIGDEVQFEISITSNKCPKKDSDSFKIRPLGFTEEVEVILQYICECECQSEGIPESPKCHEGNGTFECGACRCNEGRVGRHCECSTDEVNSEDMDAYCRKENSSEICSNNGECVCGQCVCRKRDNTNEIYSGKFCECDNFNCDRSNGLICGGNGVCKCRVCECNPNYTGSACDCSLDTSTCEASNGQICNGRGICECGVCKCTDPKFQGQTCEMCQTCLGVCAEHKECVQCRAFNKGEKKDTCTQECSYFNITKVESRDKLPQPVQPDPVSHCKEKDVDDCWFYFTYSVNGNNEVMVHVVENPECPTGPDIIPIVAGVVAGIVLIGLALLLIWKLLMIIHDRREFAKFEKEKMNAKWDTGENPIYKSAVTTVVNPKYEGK

O=C(O)[C@H](CCC(=O)N1CCC(CNc2ccncc2)CC1)NC(=O)[C@@H]1CCCN1S(=O)(=O)c1cc(Cl)cc(Cl)c1 [Example 99, (2S)-2-[1-(3,5-Dichlorophenylsulfonyl)-L-prolylamino]-5-oxo-5-[4-(4-pyridylaminomethyl)piperidin-1-yl]pentanoic Acid]
IC50: 13.1 nM

Cc1ccc(C)n1CC1CCN(C(=O)CC[C@H](NC(=O)[C@@H]2CCCN2S(=O)(=O)c2cc(Cl)cc(Cl)c2)C(=O)O)CC1 [Example 82, (2S)-2-[1-(3,5-Dichlorophenylsulfonyl)-L-prolylamino]-5-[4-(2,5-dimethylpyrrol-1-ylmethyl)piperidin-1-yl]-5-oxopentanoic Acid]
IC50: 89 nM

CCN(CC)CCC1CCN(C(=O)CC[C@H](NC(=O)[C@@H]2CCCN2S(=O)(=O)c2cc(Cl)cc(Cl)c2)C(=O)O)CC1 [Example 91, (2S)-2-[1-(3,5-Dichlorophenylsulfonyl)-L-prolylamino]-5-[4-[2-(diethylamino)ethyl]piperidin-1-yl]-5-oxopentanoic Acid]
IC50: 64.6 nM

CCc1nc2cnccc2n1CC1CCN(C(=O)CC[C@H](NC(=O)[C@@H]2CCCN2S(=O)(=O)c2cc(Cl)cc(Cl)c2)C(=O)O)CC1 [Example 85, (2S)-2-[1-(3,5-Dichlorophenylsulfonyl)-L-prolylamino]-5-[4-(2-ethylimidazo[4,5-c]pyridin-1-ylmethyl)piperidin-1-yl]-5-oxopentanoic Acid]
IC50: 12 nM

CCNCC1CCN(C(=O)CC[C@H](NC(=O)[C@@H]2CCCN2S(=O)(=O)c2cc(Cl)cc(Cl)c2)C(=O)O)CC1 [Example 96, (2S)-2-[1-(3,5-Dichlorophenylsulfonyl)-L-prolylamino]-5-[4-[(ethylamino)methyl]piperidin-1-yl]-5-oxopentanoic Acid]
IC50: 74.8 nM

Cc1ccc(S(=O)(=O)N2CCC[C@H]2C(=O)N[C@@H](CCC(=O)N2CCN(Cc3cccs3)CC2)C(=O)O)cc1 [Example 77, (2S)-5-Oxo-5-[4-(2-thienylmethyl)piperazin-1-yl]-2-[[1-tosyl-L-prolyl]amino]pentanoic Acid]
IC50: 247 nM

CN(C)CC1CCN(C(=O)CC[C@H](NC(=O)[C@@H]2CCCN2S(=O)(=O)c2cc(Cl)cc(Cl)c2)C(=O)O)CC1 [Example 83, (2S)-2-[1-(3,5-Dichlorophenylsulfonyl)-L-prolylamino]-5-[4-(dimethylaminomethyl)piperidin-1-yl]-5-oxopentanoic Acid]
IC50: 65 nM

Cc1nc2cnccc2n1CC1CCN(C(=O)CC[C@H](NC(=O)[C@@H]2CCCN2S(=O)(=O)c2cc(Cl)cc(Cl)c2)C(=O)O)CC1 [Example 72, (2S)-2-[1-(3,5-Dichlorophenylsulfonyl)-L-prolylamino]-5-[4-(2-methylimidazo[4,5-c]pyridin-1-ylmethyl)piperidin-1-yl]-5-oxopentanoic Acid]
IC50: 15 nM

CCc1nc2cnccc2n1CC1CCN(C(=O)NC[C@H](NC(=O)[C@@H]2CCCN2S(=O)(=O)c2cc(Cl)cc(Cl)c2)C(=O)O)CC1 [Example 123, Lithium (2S)-2-[1-(3,5-dichlorophenylsulfonyl)-L-prolyl]amino-3-[[4-(2-ethylimidazo[4,5-c]pyridin-1-ylmethyl)piperidin-1-ylcarbonyl]amino]propionate]
IC50: 4.6 nM

CCCc1nc2cnccc2n1CC1CCN(C(=O)CC[C@H](NC(=O)[C@@H]2CCCN2S(=O)(=O)c2cc(Cl)cc(Cl)c2)C(=O)O)CC1 [Example 119, (2S)-2-[1-(3,5-Dichlorophenylsulfonyl)-L-prolylamino]-5-oxo-5-[4-(2-propylimidazo[4,5-c]pyridin-1-ylmethyl)piperidin-1-yl]pentanoic Acid]
IC50: 49.8 nM

Cc1ccc(S(=O)(=O)N2CCC[C@H]2C(=O)N[C@@H](CCC(=O)N2CCC(CNc3nccc(C(F)(F)F)n3)CC2)C(=O)O)cc1 [Example 64, (2S)-5-Oxo-2-[1-tosyl-L-prolyl]amino-5-[4-[[4-(trifluoromethyl)pyrimidin-2-yl]aminomethyl]piperidin-1-yl]pentanoic Acid]
IC50: 193 nM

O=C(O)[C@H](CCC(=O)N1CCC(CCOC(=O)N2CCN(c3ccccc3)CC2)CC1)NC(=O)[C@@H]1CCCN1S(=O)(=O)c1cc(Cl)cc(Cl)c1 [Example 117, (2S)-2-[1-(3,5-Dichlorophenylsulfonyl)-L-prolylamino]-5-oxo-5-[4-[2-(4-phenylpiperazin-1-ylcarbonyloxy)ethyl]piperidin-1-yl]pentanoic Acid]
IC50: 135 nM

CC(C)S(=O)(=O)NCC1CCN(C(=O)CC[C@H](NC(=O)[C@@H]2CCCN2S(=O)(=O)c2cc(Cl)cc(Cl)c2)C(=O)O)CC1 [Example 60, (2S)-2-[1-(3,5-Dichlorophenylsulfonyl)-L-prolylamino]-5-[4-[(isopropylsulfonylamino)methyl]piperidin-1-yl]-5-oxopentanoic Acid]
IC50: 11.6 nM

CN(C)CCN1CCN(C(=O)CC[C@H](NC(=O)[C@@H]2CCCN2S(=O)(=O)c2cc(Cl)cc(Cl)c2)C(=O)O)CC1 [Example 84, (2S)-2-[1-(3,5-Dichlorophenylsulfonyl)-L-prolylamino]-5-[4-[2-(dimethylamino)ethyl]piperazin-1-yl]-5-oxopentanoic Acid]
IC50: 6 nM

CC(C)NC(=S)NCC1CCN(C(=O)CC[C@H](NC(=O)[C@@H]2CCCN2S(=O)(=O)c2cc(Cl)cc(Cl)c2)C(=O)O)CC1 [Example 58, (2S)-2-[1-(3,5-Dichlorophenylsulfonyl)-L-prolylamino]-5-[4-[(N′-isopropylthioureido)methyl]piperidin-1-yl]-5-oxopentanoic Acid]
IC50: 166 nM

CCN(CC)CC1CCN(C(=O)CC[C@H](NC(=O)[C@@H]2CCCN2S(=O)(=O)c2cc(Cl)cc(Cl)c2)C(=O)O)CC1 [Example 88, (2S)-2-[1-(3,5-Dichlorophenylsulfonyl)-L-prolylamino]-5-[4-(diethylaminomethyl)piperidin-1-yl]-5-oxopentanoic Acid]
IC50: 83.9 nM

O=C(O)[C@H](CCC(=O)N1CCC(CNC(=O)N2CCOCC2)CC1)NC(=O)[C@@H]1CCCN1S(=O)(=O)c1cc(Cl)cc(Cl)c1 [Example 67, (2S)-2-[1-(3,5-Dichlorophenylsulfonyl)-L-prolylamino]-5-[4-(4-morpholinylcarbonylaminomethyl)piperidin-1-yl]-5-oxopentanoic Acid]
IC50: 33 nM

Cc1ccc(S(=O)(=O)N2CCC[C@H]2C(=O)N[C@@H](CCC(=O)N2CCC(Cn3c(C)nc4cnccc43)CC2)C(=O)O)cc1 [Example 73, (2S)-5-[4-(2-Methylimidazo[4,5-c]pyridin-1-ylmethyl)piperidin-1-yl]-5-oxo-2-[1-tosyl-L-prolylamino]pentanoic Acid]
IC50: 57 nM

O=C(O)[C@H](CCC(=O)N1CCC(COc2ccncc2)CC1)NC(=O)[C@@H]1CCCN1S(=O)(=O)c1cc(Cl)cc(Cl)c1 [Example 102, (2S)-2-[1-(3,5-Dichlorophenylsulfonyl)-L-prolylamino]-5-oxo-5-[4-(4-pyridyloxymethyl)piperidin-1-yl]pentanoic Acid]
IC50: 305 nM

CN(C)CC1CCN(C(=O)NC[C@H](NC(=O)[C@@H]2CCCN2S(=O)(=O)c2cc(Cl)cc(Cl)c2)C(=O)O)CC1 [Example 95, (2S)-2-[1-(3,5-Dichlorophenylsulfonyl)-L-prolyl]amino-3-[[4 (dimethylaminomethyl)piperidin-1-ylcarbonyl]amino]propionic Acid]
IC50: 4.9 nM

Reference: US20050143391A1, “Heterocyclic amides with alpha-4 integrin antagonist activity” (J. Uriach Y Compañia S.A., priority 2002, published 2005)
